The source made the active and inactive calls. The calls are words filed in the database; no cut-off is given here.
Tests used:
HT-1080 [1] = assay: Antiproliferative activity against human HT-1080 cells assessed as inhibition of cell growth incubated for 72 hrs by MTT assay; type: functional, cell-based; settings: HT-1080, 72 h
HT-1080 [2] = assay: HyT activity at GPX4/E3 ligase in human HT-1080 cells assessed as degradation of GPX4 protein at 0.05 uM incubated for 24 hrs by Western blotting analysis relative to control; type: cell-based
HT-1080 [3] = assay: HyT activity at GPX4/E3 ligase in human HT-1080 cells assessed as degradation of GPX4 protein at 0.2 uM incubated for 24 hrs by Western blotting analysis relative to control; type: cell-based
HT-1080 [4] = assay: HyT activity at GPX4/E3 ligase in human HT-1080 cells assessed as degradation of GPX4 protein at 0.05 uM incubated for 12 hr by Western blotting analysis; type: cell-based
MDA-MB-231 [5] = assay: Antiproliferative activity against human MDA-MB-231 cells assessed as inhibition of cell growth incubated for 72 hrs by MTT assay; type: functional, cell-based; settings: MDA-MB-231, 72 h
786-0 = assay: Antiproliferative activity against human 786-0 cells assessed as inhibition of cell growth incubated for 72 hrs by MTT assay; type: functional, cell-based; settings: 786-0, 72 h
OS-RC-2 = assay: Antiproliferative activity against human OS-RC-2 cells assessed as inhibition of cell growth incubated for 72 hrs by MTT assay; type: functional, cell-based; settings: OS-RC-2, 72 h
HT-1080 [6] = assay: HyT activity at GPX4/E3 ligase in human HT-1080 cells assessed as degradation of GPX4 protein incubated for 24 hrs by Western blotting analysis; type: cell-based
[7] = HyT activity at GPX4/E3 ligase in human HT-1080 cells assessed as degradation of GPX4 protein by measuring degradation concentration incubated for 24 hrs by Western blotting analysis; type: cell-based; settings: HT-1080, 24 h
HT-1080 [8] = assay: HyT activity at GPX4/E3 ligase in human HT-1080 cells assessed as degradation of GPX4 protein at 0.05 uM incubated for 7 hrs by Western blotting analysis; type: cell-based
HT-1080 [9] = assay: HyT activity at GPX4/E3 ligase in human HT-1080 cells assessed as degradation of GPX4 protein at 0.05 uM incubated for 12 hrs by Western blotting analysis relative to control; type: cell-based
HT-1080 [10] = assay: HyT activity at GPX4/E3 ligase in human HT-1080 cells assessed as degradation of GPX4 protein at 0.05 uM incubated for 20 hrs by Western blotting analysis; type: cell-based
HT-1080 [11] = assay: HyT activity at GPX4/E3 ligase in human HT-1080 cells assessed as degradation of GPX4 protein at 0.05 uM by Western blotting analysis; type: cell-based; settings: TDE = time-dependent effect
HT-1080 [12] = assay: HyT activity at GPX4/E3 ligase in human HT-1080 cells assessed as degradation of GPX4 protein at 0.05 uM measured after 4 hrs in presence of cycloheximide by Western blotting analysis; type: cell-based
HT-1080 [13] = assay: HyT activity at GPX4/E3 ligase in human HT-1080 cells assessed as degradation of GPX4 protein at 0.05 uM in presence of cycloheximide by Western blotting analysis; type: cell-based; settings: TDE = time-dependent effect
HT-1080 [14] = assay: HyT activity at GPX4/E3 ligase in human HT-1080 cells assessed as degradation of GPX4 protein at 0.05 uM incubated for 12 hr in presence of MG132 by Western blotting analysis; type: cell-based
HT-1080 [15] = assay: HyT activity at GPX4/E3 ligase in human HT-1080 cells assessed as degradation of GPX4 protein at 0.05 uM incubated for 12 hr in presence of chloroquine by Western blotting analysis; type: cell-based
MDA-MB-231 [16] = assay: Antiproliferative activity against human MDA-MB-231 cells assessed as fold increase in inhibition of cell growth incubated for 72 hrs by MTT assay relative to RSL3; type: functional
HT-1080 [17] = assay: Induction of ferroptosis in human HT-1080 cells assessed as increase in lipid peroxidation at 0.2 to 0.5 uM incubated for 4 hrs by C11 BODIPY 581/591 dye based flow cytometry; type: functional, cell-based; settings: dose 0.2-0.5 µM
HT-1080 [18] = assay: Induction of ferroptosis in human HT-1080 cells assessed as increase in ROS production at 0.2 to 0.5 uM incubated for 4 hrs by DCFH-DA dye based flow cytometry; type: functional, cell-based; settings: dose 0.2-0.5 µM
HT-1080 [19] = assay: Induction of ferroptosis in human HT-1080 cells assessed as increase in lipid peroxidation at 0.2 to 0.5 uM incubated for 4 hrs in presence of ferrostatin-1 by C11 BODIPY 581/591 dye based flow cytometry; type: functional, cell-based; settings: dose 0.2-0.5 µM
HT-1080 [20] = assay: Induction of ferroptosis in human HT-1080 cells assessed as increase in ROS production at 0.2 to 0.5 uM incubated for 4 hrs in presence of ferrostatin-1 by DCFH-DA dye based flow cytometry; type: functional, cell-based; settings: dose 0.2-0.5 µM

IC50 (HT-1080 [1]) | SMILES | Activity (HT-1080 [2]) | Activity (HT-1080 [3]) | further results
90 nM | COC(=O)c1ccc([C@H]2c3[nH]c4ccccc4c3C[C@H](C(=O)OC)N2C(=O)CCl)cc1 | 21% | 39% | Activity (HT-1080 [4]): Active; IC50 (MDA-MB-231 [5]): 129 nM; IC50 (786-0): 47 nM; IC50 (OS-RC-2): 82 nM
30 nM | COC(=O)[C@H]1Cc2c([nH]c3ccccc23)[C@H](c2ccc(C(=O)N3CCN(CCCCCCNC(=O)CC45CC6CC(CC(C6)C4)C5)CC3)cc2)N1C(=O)CCl | 44% | 70% | –
120 nM | COC(=O)[C@H]1Cc2c([nH]c3ccccc23)[C@H](c2ccc(C(=O)NCCOCCNC(=O)CC34CC5CC(CC(C5)C3)C4)cc2)N1C(=O)CCl | – | – | –
64 nM | COC(=O)[C@H]1Cc2c([nH]c3ccccc23)[C@H](c2ccc(C(=O)NCCCCCNC(=O)CC34CC5CC(CC(C5)C3)C4)cc2)N1C(=O)CCl | 20% | 38% | –
498 nM | COC(=O)[C@H]1Cc2c([nH]c3ccccc23)[C@H](c2ccc(C(=O)NCCOCCOCCOCCNC(=O)CC34CC5CC(CC(C5)C3)C4)cc2)N1C(=O)CCl | – | – | –
58 nM | COC(=O)[C@H]1Cc2c([nH]c3ccccc23)[C@H](c2ccc(C(=O)NCCNC(=O)CC34CC5CC(CC(C5)C3)C4)cc2)N1C(=O)CCl | 33% | 52% | –
122 nM | COC(=O)[C@H]1Cc2c([nH]c3ccccc23)[C@H](c2ccc(C(=O)NCCCCNC(=O)CC34CC5CC(CC(C5)C3)C4)cc2)N1C(=O)CCl | 15% | 37% | –
64 nM | COC(=O)[C@H]1Cc2c([nH]c3ccccc23)[C@H](c2ccc(C(=O)NCCOCCOCCNC(=O)CC34CC5CC(CC(C5)C3)C4)cc2)N1C(=O)CCl | – | – | –
41 nM | COC(=O)[C@H]1Cc2c([nH]c3ccccc23)[C@H](c2ccc(C(=O)N3CCN(CCCCCCCCNC(=O)CC45CC6CC(CC(C6)C4)C5)CC3)cc2)N1C(=O)CCl | 35% | 58% | –
24 nM | COC(=O)[C@H]1Cc2c([nH]c3ccccc23)[C@H](c2ccc(C(=O)NCCCCCCCNC(=O)CC34CC5CC(CC(C5)C3)C4)cc2)N1C(=O)CCl | 47% | 78% | Activity (HT-1080 [6]): Dose-Dependent Effect; DC50 [7]: 19 nM; Activity (HT-1080 [8]): Active; Activity (HT-1080 [9]): 50%; Activity (HT-1080 [10]): Active; Activity (HT-1080 [11]): Tde; Activity (HT-1080 [12]): Active; Activity (HT-1080 [13]): Tde; Activity (HT-1080 [14]): inactive; Activity (HT-1080 [15]): inactive; IC50 (MDA-MB-231 [5]): 32 nM; IC50 (786-0): 46 nM; IC50 (OS-RC-2): 72 nM; fold change (FC) (MDA-MB-231 [16]): 4; Activity (HT-1080 [17]): Active; Activity (HT-1080 [18]): Active; Activity (HT-1080 [19]): inactive; Activity (HT-1080 [20]): inactive
71 nM | COC(=O)[C@H]1Cc2c([nH]c3ccccc23)[C@H](c2ccc(C(=O)N3CCN(CCNC(=O)CC45CC6CC(CC(C6)C4)C5)CC3)cc2)N1C(=O)CCl | – | – | –
380 nM | COC(=O)[C@H]1Cc2c([nH]c3ccccc23)[C@H](c2ccc(C(=O)NCCCCCCCNC(C)=O)cc2)N1C(=O)CCl | 5% | 6% | –
163 nM | COC(=O)[C@H]1Cc2c([nH]c3ccccc23)[C@H](c2ccc(C(=O)NCCCCCCCCNC(=O)CC34CC5CC(CC(C5)C3)C4)cc2)N1C(=O)CCl | 15% | 31% | –
36 nM | COC(=O)[C@H]1Cc2c([nH]c3ccccc23)[C@H](c2ccc(C(=O)NCCCCCCCCCCNC(=O)CC34CC5CC(CC(C5)C3)C4)cc2)N1C(=O)CCl | 35% | 72% | –
200 nM | COC(=O)[C@H]1Cc2c([nH]c3ccccc23)[C@H](c2ccc(C(=O)N3CCN(CCCCNC(=O)CC45CC6CC(CC(C6)C4)C5)CC3)cc2)N1C(=O)CCl | – | – | –
28 nM | COC(=O)[C@H]1Cc2c([nH]c3ccccc23)[C@H](c2ccc(C(=O)NCCCCCCNC(=O)CC34CC5CC(CC(C5)C3)C4)cc2)N1C(=O)CCl | 44% | 59% | –

— ChEMBL document CHEMBL5614389, “Design, synthesis, and biological evaluation of RSL3-based GPX4 degraders with hydrophobic tags” (Eur J Med Chem, 2024)
